Where a SMILES comes first, the peptide text is derived from it.
conditions: acidic group

| SMILES | pKa |
| --- | --- |
| COc1ccc(CC(=O)O)cc1 | 4.36 |
| O=C([O-])c1ccc([N+](=O)[O-])cc1O | 10.3 |
| CCOc1ccc(C)c(C(=O)O)c1 | 3.86 |
| O=C1O[C@@H]([C@H](O)CO)C([O-])=C1O | 11.6 |
| Oc1c(Cc2ccccc2)c(-c2ccccc2)nn1-c1ccccc1 | 7.6 |
| O=C(O)[C@@H]1O[C@H](Oc2cccc3[nH+]cccc23)[C@@H](O)[C@H](O)[C@H]1O | 3.1 |
| O=C(O)[C@@H](O)Cc1c[nH]c[nH+]1 | 2.99 |
| O=[N+]([O-])c1cccc(O)c1[O-] | 11.5 |
| O=[N+]([O-])c1ccccc1B(O)O | 8.52 |
| CCNc1nnn[nH]1 | 6.12 |
| O=C(O)c1cccc[nH+]1 | 1.25 |
| Nc1ccc(S(=O)(=O)Nc2ccc(S(N)(=O)=O)cc2)cc1 | 7.85 |
| CCOC(=O)[C@H]1CC(=O)N[C@@H]1C(=O)O | 3.5 |
| Cc1cccc(OCC(=O)O)c1 | 3.18 |
| CC(=O)NCCS | 9.5 |
| CP(C)(=O)O | 3.08 |
| O=C(c1ccccc1)c1ccccc1O | 9.3 |
| [O-]c1cccc2c1-c1cccc(O)c1-2 | 9.97 |
| CCc1cccc2ccc(O)cc12 | 9.54 |
| COc1cc(S(C)=O)ccc1-c1nc2nccnc2[nH]1 (stereo not drawn) | 8.94 |
| O=C1C=C(S(=O)(=O)[O-])/C(=N/O)c2[nH]ncc21 | 7.15 |
| O=C(O)C12CCC(O)(CC1)CC2 | 6.33 |
| CNc1cc[n+](O)cc1 | 3.85 |
| CN(C)/C=N/c1ccc(O)cc1 | 10.5 |
| c1ccc(-c2nc3cnccc3[nH]2)cc1 | 10.3 |

| SMILES | pKa |
| --- | --- |
| [O-][n+]1cccc(O)c1 | 6.4 |
| O=C1CSC(=S)N1 | 6.48 |
| CNC(=O)Oc1ccc2c(c1)[C@@]1(C)CC[NH+](C)[C@H]1N2C | 6.12 |
| O=C(O)c1ccc(OCc2ccccc2)cc1 | 4.44 |
| O=C(O)c1ccccc1I | 2.93 |
| Oc1ccccc1-c1ccccc1 | 9.99 |
| O=[PH]([O-])C(NCc1ccccn1)c1ccccc1O (stereo not drawn) | 12 |
| CC(=O)C(Cc1ccccc1)C(C)=O | 10.5 |
| CC/C=C/CC1=[NH+]C(C(=O)O)[C@@H]2SC(C)(C)C(C(=O)O)N12 (stereo partly drawn) | 2.4 |
| C(CSCCc1nnn[nH]1)SCCc1nnn[nH]1 | 5 |
| CC1CCC[C@H](C(C)C(=O)O)C1 (stereo partly drawn) | 4.59 |
| Oc1ccc(Nc2ccc(O)cc2)cc1 | 9.44 |
| O=C(O)[C@]12C[NH2+]CC[C@H]1O2 | 2.63 |
| C[n+]1cccc(S)c1 | 2.27 |
| [O-]c1cc([O-])cc(O)c1 | 14.1 |
| Oc1cc[nH+]cc1 | 4.04 |
| O=C(Oc1cccc([N+](=O)[O-])c1)C1c2ccccc2-c2ccccc21 | 9.84 |
| Cc1ccc(C(=O)O)c(Br)c1 | 3.09 |
| C[n+]1ccc(C(=O)O)cc1 | 1.72 |
| CC(=O)OO | 8.19 |
| [NH3+]CCCCCCCCCC(=O)O | 4.57 |
| CC1(C(=O)O)CCC=[N+]1[O-] (stereo not drawn) | 2.95 |
| SCC[NH2+]CCc1ccccc1 | 7.85 |
| [O-]c1ccc(O)cc1Br | 10.7 |
| OCO | 12.8 |

| SMILES | pKa |
| --- | --- |
| O=C1CCCCC1=O | 10.3 |
| NC(=O)CCCc1ccccn1 | 5.48 |
| N#CC(C(=O)O)c1ccccc1 (stereo not drawn) | 1.77 |
| CC(O)(c1ccccc1)C(C(=O)O)c1ccc(-c2ccccc2)cc1 (stereo not drawn) | 3.38 |
| CC(C)[C@H](C(=O)O)N1C[C@H](NC(=O)Cc2ccccc2)C1=O | 3.48 |
| CCn1nnnc1NC(C)=O | 8.38 |
| CC(=O)C(C(C)=O)C(C)C | 12.8 |
| O=C(O)C12CCC(CC1)C2 | 4.89 |
| C=C(SC1CCCCC1)C(=O)O | 3.4 |
| O=C(O)COc1ccccc1 | 3.15 |
| COC(=O)c1ccccc1-n1nc(O)cc1C | 12.3 |
| Cc1nn(-c2ccccc2)cc1C(=O)O | 4.58 |
| [NH3+]CC(=O)N[C@@H](Cc1c[nH]c[nH+]1)C(=O)O | 2.61 |
| O=C([O-])Cc1nnn[nH]1 | 5.32 |
| Oc1ccc2c(c1)CCCC2 | 10.3 |
| CCC1C(=O)c2ccccc2C1=O | 6.5 |
| CC(C[Si](C)(C)CCCCl)C(=O)O (stereo not drawn) | 5.05 |
| Cc1nnc(NS(=O)(=O)c2ccc(N)cc2)s1 | 5.46 |
| CS(=O)c1ccc(O)cc1 (stereo not drawn) | 8.28 |
| Cc1cc(C2(c3ccc(O)c(C)c3)OS(=O)(=O)c3c(Br)c(Br)c(Br)c(Br)c32)ccc1O | 7.53 |
| Cn1cnc2c1NC=NS2(=O)=O | 4.45 |
| O=S(O)c1ccccc1 | 1.72 |
| Oc1onc2c1CC[NH+](Cc1ccccc1)CC2 | 3.3 |
| COc1ccc(C(=S)Nc2ccc(Cl)c(Cl)c2)cc1 | 10.1 |
| CNc1nc(O)[n+]([C@@H]2C[C@@H](O)[C@H](CO)O2)cc1C | 4.04 |

same assay, conditions: basic group

| SMILES | pKa |
| --- | --- |
| CCN(C)CC | 10.4 |
| CN(C)CCC(c1ccccc1)c1ccccc1 | 9.4 |
| C1CCN(CCCN2CCCCC2)CC1 | 10.1 |
| Cc1ccc(N)nc1 | 7.22 |
| C=CC(C)(C)Nc1ccccc1 | 4.88 |
| Nc1ccc(-c2cnc(-c3ccc(Br)cc3)o2)cc1 | 3.51 |
| N[C@@H](Cc1c[nH]cn1)C(=O)NCC(=O)[O-] (H-His-Gly-OH) | 7.82 |
| Nc1ccc(Cl)cc1N | 4.3 |
| Cc1cccc(CCCCCCCC(=O)[O-])n1 | 7 |
| CN(C)c1cccc(Cl)c1 | 3.83 |
| O=C(O)c1cccc[nH+]1 | -0.84 |
| CCOCCNc1ccc(OC)cc1 | 4.99 |
| c1cnc2ncncc2n1 | 4.13 |
| Nc1ccc2cnc3ccccc3c2c1 | 6.88 |
| Cc1c(Cn2ccnc2)sc2cc(C(=O)[O-])ccc12 | 6.04 |
| Cc1cccc(Nc2ccccc2)c1 | 0.92 |
| CNNC1CCN(C(C)C)CC1 | 9.1 |
| CCC(N)(CC)CC | 10.9 |
| Nc1nc(N)nc(N)n1 | 5.06 |
| CSc1cccc2ncccc12 | 4.5 |
| CCCN1CCCCC1 | 10.4 |
| CCN(CC)CCOCC[NH+](CC)CC | 8.61 |
| C/C(N)=N/O | 5.9 |
| Cc1cn2nc(-c3ccccc3)ccc2n1 | 5.09 |
| CC1=CCCN1C | 11.9 |

| SMILES | pKa |
| --- | --- |
| NCCC[Se-] | 11.3 |
| CC1CCCN(C(C)C=C(c2cccs2)c2cccs2)C1 (stereo not drawn) | 8.28 |
| CCO[Si](C)(CN)OCC | 9.19 |
| CN(C)CCC/N=C(\c1ccccc1)c1cccc2ccccc12 | 9 |
| CN(C)/C=N/c1ccc(O)cc1 | 8.28 |
| O=[N+]([O-])c1ccc([O-])c(CN2CCOCC2)c1 | 7.92 |
| c1ccc(-c2nc3cnccc3[nH]2)cc1 | 6 |
| NCC(=O)Nc1ccc([N+](=O)[O-])cc1 | 8.5 |
| N#CCN1CCCCC1 | 4.55 |
| c1ncc(Cc2cnc[nH]2)[nH]1 | 7.63 |
| C[C@H]([NH3+])[C@@H](C)N | 6.84 |
| Oc1ccccc1CNC1CCCCC1 | 8.67 |
| CN(C)/C=N/c1cccc([N+](=O)[O-])c1 | 7.29 |
| O=[PH]([O-])C(NCc1ccccn1)c1ccccc1O (stereo not drawn) | 8.08 |
| N[C@H]1C[C@@H]2CCCC[C@H]2C[C@@H]1[NH3+] | 6.97 |
| OCCCCc1cccnc1 | 5.7 |
| N=C(Sc1ccccc1)c1ccccc1 | 4.48 |
| NCc1ccc(C=O)o1 | 8.1 |
| CCC(=O)C1(c2cccc(O)c2)CCN(C)CC1 | 8.67 |
| Clc1ccc(C2CN2)cc1 (stereo not drawn) | 6.18 |
| CC(C)(C)[C@]1(O)CCN2C[C@@H](c3ccccc3)c3ccccc3[C@@H]2C1 | 7.03 |
| OCc1ccccn1 | 4.66 |
| NC(=O)C([NH3+])Cc1c[nH]cn1 (stereo not drawn) | 5.78 |
| CNC(=O)/C=C(\c1ccc2nc(N)n(C(C)C)c2c1)c1cccc(F)c1F | 6.69 |
| CC1ONCc2ccccc21 (stereo not drawn) | 3.6 |

| SMILES | pKa |
| --- | --- |
| Nc1ccnc2c1ncn2CCOCP(=O)([O-])O | 5.52 |
| C[NH2+]CCN(C)CC[NH2+]C | 3.13 |
| Nc1ncc2[nH]c[nH+]c2n1 | -0.28 |
| CCOC(=O)C[C@H](N)c1ccccc1 | 8.32 |
| CCOC(=O)CCN(C)C | 8.6 |
| CC(C)CN(C)c1ccccc1 | 5.2 |
| NCCc1ccccn1 | 9.51 |
| C[C@@H]1[C@@H](N)[C@H]1N | 8.98 |
| CN(C)c1ccc(Br)cc1 | 4.25 |
| Nc1ccc2cc3ccc(Cl)cc3nc2c1 | 7.26 |
| Cc1cc(-c2ccccc2)nn(CCN2CCOCC2)c1=N | 9.7 |
| Cc1nc(N)c2cnn(C)c2n1 | 5 |
| Nc1nc([S-])c2ncn([C@H]3O[C@@H](CO)[C@H](O)[C@@H]3O)c2n1 | 8.34 |
| COc1nc2ccccc2[nH]1 | 3.75 |
| CC[NH+](CC)CC(C)Nc1c2ccc(Cl)cc2nc2ccc(OC)cc12 (stereo not drawn) | 7.15 |
| CC(=O)N1CCN(C)CC1 | 7.1 |
| O[C@@H]1[C@H](O)[C@@H](n2cnc3cncnc32)OC[C@@H]1O | 1.8 |
| Cc1nnc2c(c1C)CCC2 | 5.36 |
| Cc1cnncc1C | 4.13 |
| O=C([O-])[C@@H]1O[C@H](Oc2ccc3cccnc3c2)[C@@H](O)[C@H](O)[C@H]1O | 5.32 |
| Nc1ccc[nH+]c1 | -1.37 |
| Cc1ccc2ccc3cccnc3c2n1 | 5.36 |
| NC(=O)CCc1cccnc1 | 5.21 |
| CC1(C)[C@@H](N)[C@@H]1[NH3+] | 5.97 |
| CNCl | 1.71 |

| SMILES | pKa |
| --- | --- |
| CCNCCCC(=O)[O-] | 11 |
| Clc1ccc(C2NCCS2)cc1 (stereo not drawn) | 5.01 |
| Brc1ccc2c(c1)CCN2 | 3.7 |
| CC(=O)N(C)c1cccnc1 | 3.52 |
| CN1C[C@H](C(=O)[O-])C[C@@H]2c3cccc4[nH]cc(c34)C[C@@H]21 | 8.57 |
| Clc1ccc(Nc2ccccc2)cc1 | 0 |
| Nc1nccc(-c2csc(N)[nH+]2)n1 | 2.6 |
| CCCC(=O)OC(C)CN(C)C (stereo not drawn) | 8.27 |
| NNC(=O)c1cc[nH+]cc1 | 1.67 |
| NCCC=C(Cl)Cl | 9.85 |
| O=C(CCN1CCOCC1)c1cccc(Br)c1 | 6.8 |
| c1cc([C@@H]2CCCN2)nc([C@@H]2CCCN2)c1 | 10.1 |
| Nc1cccc([N+](=O)[O-])c1 | 2.6 |
| NCC(=O)NCC(=O)[O-] | 8.31 |
| CN(C)c1ccc(N(C)C)cc1 | 6.37 |
| C[C@H]([NH3+])C(=O)N[C@@H](Cc1c[nH]cn1)C(=O)[O-] | 6.76 |
| Cc1nnc(NS(=O)(=O)c2ccc(N)cc2)s1 | 2.19 |
| CCCCN1CCCCC1 | 10.5 |
| CNc1ccc[n+](O)c1 | -2.42 |
| C[NH+]1CCCC1c1cccnc1 (stereo not drawn) | 3.01 |
| CC1=Nc2ccccc2CO1 | 4.64 |
| Clc1cnc2c(ccc3cccnc32)c1 | 3.99 |
| CCOC(=O)C1(c2ccccc2)CCN(C)CC1 | 8.6 |
